Laboratory results from patent publication US12692254B2, “Benzimidazole inhibitors of PAD enzymes” (BRISTOL-MYERS SQUIBB COMPANY, priority 2018, dated 2026).

target: human PAD4 (hPAD4) (Homo sapiens, UniProt Q9UM07); experiment: RFMS human PAD4 functional assay (rapid-fire mass spectrum); type: biochemical; conditions: 5 nM hPAD4 enzyme, 250 μM BAEE, 50 μM Calcium; 30 min preincubation, 90 min reaction at 37° C.
Procedure, shortened: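 PAD4 (10 nM) preincubated 30 min with compound (top final 50 μM), then BAEE substrate added in pH 7.5 HEPES buffer with DTT, 50 μM calcium, TPEN; 90 min at 37° C. After TCA quench, citrulline derivatized with phenyl glyoxal (4 mM final, 30 min, 37° C) and quantified by RapidFire MS against internal standard.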

human PAD4 (hPAD4), sequence (Q9UM07 whole entry): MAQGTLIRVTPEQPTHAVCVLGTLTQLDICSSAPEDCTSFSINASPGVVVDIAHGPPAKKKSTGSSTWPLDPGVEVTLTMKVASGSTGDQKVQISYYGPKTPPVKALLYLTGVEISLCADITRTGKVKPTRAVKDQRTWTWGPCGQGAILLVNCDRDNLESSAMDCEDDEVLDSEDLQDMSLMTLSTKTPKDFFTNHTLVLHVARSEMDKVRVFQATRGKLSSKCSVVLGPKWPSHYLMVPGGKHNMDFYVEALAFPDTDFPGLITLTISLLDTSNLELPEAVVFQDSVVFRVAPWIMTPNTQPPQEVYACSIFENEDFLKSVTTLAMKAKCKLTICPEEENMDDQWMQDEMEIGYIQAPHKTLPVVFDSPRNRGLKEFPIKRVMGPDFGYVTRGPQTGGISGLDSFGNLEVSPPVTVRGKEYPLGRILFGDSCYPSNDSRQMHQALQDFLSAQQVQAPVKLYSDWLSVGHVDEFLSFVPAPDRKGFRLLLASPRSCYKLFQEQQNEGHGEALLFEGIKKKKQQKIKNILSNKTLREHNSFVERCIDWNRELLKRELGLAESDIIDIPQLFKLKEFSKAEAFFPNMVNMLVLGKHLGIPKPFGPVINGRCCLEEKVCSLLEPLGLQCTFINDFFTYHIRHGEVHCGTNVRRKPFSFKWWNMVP

Row | SMILES | IC50
1 | COc1cc(C(=O)N2C[C@H]3CC[C@@H]2[C@@H]3N)cc2nc(-c3cc4cccnc4n3CC3CC3)n(C3CN(C(=O)c4ccnc(C)n4)C3)c12 [Example 97, (1R,4R,7R)-2-{2-[1-(cyclopropylmethyl)-1H-pyrrolo[2,3-b]pyridin-2-yl]-7-methoxy-1-[1-(2-methylpyrimidine-4-carbonyl)azetidin-3-yl]-1H-1,3-benzodiazole-5-carbonyl}-2-azabicyclo[2.2.1]heptan-7-amine] | 63 nM
2 | COc1ccc2cc(-c3nc4cc(C(=O)N5C[C@H]6CC[C@@H]5[C@@H]6N)cc(OC)c4n3CC3CN(C(=O)c4cnc(C#N)nc4)C3)n(CC3CC3)c2n1 [Example 177, 5-[3-({5-[(1R,4R,7R)-7-amino-2-azabicyclo[2.2.1]heptane-2-carbonyl]-2-[1-(cyclopropylmethyl)-6-methoxy-1H-pyrrolo[2,3-b]pyridin-2-yl]-7-methoxy-1H-1,3-benzodiazol-1-yl}methyl)azetidine-1-carbonyl]pyrimidine-2-carbonitrile] | 54 nM
3 | COc1cc(C(=O)N2C[C@H](N)C[C@@H](F)C2)cc2nc(-c3cc4ccccc4n3CC3CC3)n(Cc3csc(C)n3)c12 [Example 285, (3R,5R)-1-{2-[1-(cyclopropylmethyl)-1H-indol-2-yl]-7-methoxy-1-[(2-methyl-1,3-thiazol-4-yl)methyl]-1H-1,3-benzodiazote-5-carbonyl}-5-fluoropiperidin-3-amine] | 1020 nM
4 | COc1cc(C(=O)N2C[C@H](N)C[C@@H](F)C2)cc2nc(-c3cc4ccccc4n3CC3CC3)n(CC3CCC(=O)N3)c12 (stereo partly drawn) [Example 283, 5-({5-[(3R,5R)-3-amino-5-fluoropiperidine-1-carbonyl]-2-[1-(cyclopropylmethyl)-1H-indol-2-yl]-7-methoxy-1H-1,3-benzodiazol-1-yl}methyl)pyrrolidin-2-one] | 895 nM
5 | COc1cc(C(=O)N2CC3CCC2[C@@H]3N)cc2nc(-c3cc4ccccc4n3CC3CC3)n(Cc3cnn(-c4cnc(C#N)c(F)c4)c3)c12 (stereo partly drawn) [Example 394, 5-[4-({5-[(7R)-7-amino-2-azabicyclo[2.2.1]heptane-2-carbonyl]-2-[1-(cyclopropyimethyl)-1H-indol-2-yl]-7-methoxy-1H-1,3-benzodiazol-1-yl}methyl)-1H-pyrazol-1-yl]-3-fluoropyridine-2-carbonitrile] | 50 nM
6 | COc1cc(C(=O)N2C[C@H]3CC[C@@H]2[C@@H]3N)cc2nc(-c3cc4cccnc4n3CC3CC3)n(C3CN(c4cncc(C#N)n4)C3)c12 [Example 69, 6-(3-{5-[(1R,4R,7R)-7-amino-2-azabicyclo[2.2.1]heptane-2-carbonyl]-2-[1-(cyclopropylmethyl)-1H-pyrrolo[2,3-b]pyridin-2-yl]-7-methoxy-1H-1,3-benzodiazol-1-yl}azetidin-1-yl)pyrazine-2-carbonitrile] | 58 nM
7 | COc1cc(C(=O)N2C[C@H]3CC[C@@H]2[C@@H]3N)cc2nc(-c3cc4cccnc4n3CC3CC3)n(CC3CN(c4cncs4)C3)c12 [Example 84, (1R,4R,7R)-2-{2-[1-(cyclopropylmethyl)-1H-pyrrolo[2,3-b]pyridin-2-yl]-7-methoxy-1-{[1-(1,3-thiazol-5-yl)azetidin-3-yl]methyl}-1H-1,3-benzodiazole-5-carbonyl}-2-azabicyclo[2.2.1]heptan-7-amine] | 511 nM
8 | COc1ncccc1-n1cc(Cn2c(-c3cc4ccccc4n3CC3CC3)nc3cc(C(=O)N4CC5CCC4[C@@H]5N)cc(OC)c32)cn1 (stereo partly drawn) [Example 403, (7R)-2-{2-[1-(cyclopropylmethyl)-1H-indol-2-yl]-7-methoxy-1-{[1-(2-methoxypyridin-3-yl)-1H-pyrazol-4-yl]methyl}-1H-1,3-benzodiazole-5-carbonyl)-2-azabicyclo[2.2.1]heptan-7-amine] | 66 nM
9 | COc1cc(C(=O)N2C[C@H](N)C[C@@H](F)C2)cc2nc(-c3cc4cccnc4n3CC3CC3)n(Cc3ccn(C)n3)c12 [Example 516, (3R,5R)-1-{2-[1-(cyclopropylmethyl)-1H-pyrrolo[2,3-b]pyridin-2-yl]-7-methoxy-1-[(1-methyl-1H-pyrazol-3-yl)methyl]-1H-1,3-benzodiazole-5-carbonyl}-5-fluoropiperidin-3-amine] | 574 nM
10 | COc1cc(C(=O)N2C[C@H]3CC[C@@H]2[C@@H]3N)cc2nc(-c3cc4cccnc4n3CC3CC3)n(CC3CN(c4ccncc4)C3)c12 [Example 57, (1R,4R,7R)-2-{2-[1-(cyclopropylmethyl)-1H-pyrrolo[2,3-b]pyridin-2-yl]-7-methoxy-1-{[1-(pyridin-4-yl)azetidin-3-yl]methyl}-1H-1,3-benzodiazole-5-carbonyl}-2-azabicyclo[2.2.1]heptan-7-amine] | 168 nM

Compounds with a lower IC50, results first:

Row | IC50 | SMILES
11 | 48 nM | COc1cc(C(=O)N2C[C@H]3CC[C@@H]2[C@@H]3N)cc2nc(-c3cc4cccnc4n3CC3CC3)n(CC3CN(c4ccnc(C)n4)C3)c12 [Example 16, (1R,4R,7R)-2-{2-[1-(cyclopropylmethyl)-1H-pyrrolo[2,3-b]pyridin-2-yl]-7-methoxy-1-{[1-(2-methylpyrimidin-4-yl)azetidin-3-yl]methyl}-1H-1,3-benzodiazole-5-carbonyl}-2-azabicyclo[2.2.1]heptan-7-amine]
12 | 47 nM | COc1cc(C(=O)N2CC3CCC2[C@@H]3N)cc2nc(-c3cc4cccnc4n3CC3CC3)n(Cc3cn[nH]n3)c12 (stereo partly drawn) [Example 485, (7R)-2-{2-[1-(cyclopropylmethyl)-1H-pyrrolo[2,3-b]pyridin-2-yl]-7-methoxy-1-[(2H-1,2,3-triazol-4-yl)methyl]-1H-1,3-benzodiazole-5-carbonyl}-2-azabicyclo[2.2.1]heptan-7-amine]
13 | 23 nM | COc1cc(C(=O)N2CC3CCC2[C@@H]3N)cc2nc(-c3cc4ccccc4n3CC3CC3)n(Cc3cnn(C)c3C)c12 (stereo partly drawn) [Example 482, (7R)-2-{2-[1-(cyclopropylmethyl)-1H-indol-2-yl]-1-[(1,5-dimethyl-1H-pyrazol-4-yl)methyl]-7-methoxy-1H-1,3-benzodiazole-5-carbonyl}-2-azabicyclo[2.2.1]heptan-7-amine]
14 | 22 nM | COc1cc(C(=O)N2C[C@H]3CC[C@@H]2[C@@H]3N)cc2nc(-c3cc4ccccc4n3CC3CC3)n(CC3CN(C(=O)c4ccc(C)cc4)C3)c12 [Example 156, (1R,4R,7R)-2-{2-[1-(cyclopropylmethyl)-1H-indol-2-yl]-7-methoxy-1-{[1-(4-methylbenzoyl)azetidin-3-yl]methyl}-1H-1,3-benzodiazole-5-carbonyl}-2-azabicyclo[2.2.1]heptan-7-amine]
15 | 21 nM | COc1ccc(C(=O)N2CC(Cn3c(-c4cc5ccccc5n4CC4CC4)nc4cc(C(=O)N5C[C@H]6CC[C@@H]5[C@@H]6N)cc(OC)c43)C2)cc1 [Example 153, (1R,4R,7R)-2-{2-[1-(cyclopropylmethyl)-1H-indol-2-yl]-7-methoxy-1-{[1-(4-methoxybenzoyl)azetidin-3-yl]methyl}-1H-1,3-benzodiazole-5-carbonyl}-2-azabicyclo[2.2.1]heptan-7-amine]
16 | 18 nM | COc1cc(C(=O)N2C[C@H]3CC[C@@H]2[C@@H]3N)cc2nc(-c3cc4ccc(Cl)cc4n3CC3CC3)n(CC3CN(c4ccnc(C(N)=O)n4)C3)c12 [Example 8, 4-[3-({5-[(1R,4R,7R)-7-amino-2-azabicyclo[2.2.1]heptane-2-carbonyl]-2-[6-chloro-1-(cyclopropylmethyl)-1H-indol-2-yl]-7-methoxy-1H-1,3-benzodiazol-1-yl}methyl)azetidin-1-yl]pyrimidine-2-carboxamide]
